Measured values from patent US20060251689A1, “Treatment or prevention of pruritus” (Astion Development A/S, priority 2005, published 2006).
Entries after “also recorded” stand apart in the source; their conditions may differ.

How the values were obtained:
skin = settings: reported in the literature; cited from earlier work
[1] = test system: oxazolone induced ear inflammation in mice; assay: Oxazolone induced mouse ear oedema assay; format: in vivo
Protocol: This screening method is commonly employed for screening and evaluation of anti-inflammatory drugs, in particular with respect to the inflammation seen in contact dermatitis. Betamethasone-17 valerate was used as the positive control. […] Betamethason was administered topically in quantities of 20 μg/ear. Betamethason was applied in the commercial form Celeston valerate® 0.1%. All groups were immunised with 20 μl oxazolone, 1.6% in ethanol 96% (w/v) on the left and the right ear. The ear thickness of all mice on both the left and right side was measured with an electronic measuring gauge. All groups were challenged with 20 μl oxazolone (1.6% in ethanol 96% (w/v)) on the left ear and the right ear. Vehicle (acetone) or test article solutions were administered 20 minutes before and 20 minutes after oxazolone challenge. 24 hours after oxazolone challenge the ear thickness of all mice was measured with an electronic measuring gauge. Mean thickness of the ears and standard deviations were calculated. Ear swelling was calculated as the difference between the ear thickness day 7 and day 8. […] Differences in ear swelling between the vehicle treated group and the other groups were tested for significance employing a non-parametric statistical method of analysis, the Mann-Whitney U test. The required level of significance was p<0.05. […] Both test articles were applied in a dose of 500 μg/ear and dissolved in 96% ethanol. Betamethason, as the positive control was administered topically in quantities of 20 μg/ear.

[2] = test system: Albino guinea pigs of Dunkin-Hartley strain; settings: guinea pig, in vivo
Protocol: Test for skin sensitization is carried out according to the Magnusson and Kligman method (J. Invest. Dermatol. 1969. 52, 268-276) and in accordance with O.E.C.D. Guideline No. 406 of Jul. 17th, 1992, and the test method B.6 of the 96/54 E.E.C Directive.
Albino guinea pigs of Dunkin-Hartley strain were exposed to the test item after an acclimatisation period of at least five days.
The Maximum Non Necrotizing Concentration (M.N.N.C.) was determined by injecting by intradermal route the following concentrations: 2.5%, 1.25%, 0.625%, 0.3125%, 0.1562% and 0.078% diluted in physiological saline solution.
Pre-Maximum Non Irritant Concentration (pre-M.N.I.C.) was determined by application of the test item under an occlusive dressing during 24 hours, at the following concentrations: 2.5%, 1.25%, 0.625%, 0.3125% diluted in physiological saline solution.
Maximum Non Irritant Concentration (M.N.I.C.) was determined by initially establishing an induction phase by intradermal injection with a physiological saline solution and by topical application of distilled water followed by a 18-day rest phase. In the challenge phase where the test item is under occlusive dressing for 24 hours, the test item was applied to the skin of the Albino guinea pigs at the following concentrations: 2.5%, 1.25%, 0.625%, 0.3125% diluted in physiological saline solution.

Phosphodiesterase PDE IV = assay: enzyme assay, Phosphodiesterase PDE IV (MDS Pharma Service No 154000); format: biochemical; settings: in words, comparison
[3] = molecular target: T1, Protein Tyrosine Kinase, SYK (Homo sapiens, UniProt P43405); assay: enzyme assay, Protein Tyrosine Kinase SYK (MDS Pharma Service No 155761); format: biochemical; settings: in words, comparison
T1 construct: purchased MDS Pharma Services (printed once as 'MSD Pharma Services') 155761
Protocol: (§1) The enzyme assays were conducted by MSD Pharma Services.

[4] = molecular target: T2, Protein Tyrosine Kinase, ZA70 (ZAP-70) (Homo sapiens, UniProt P43403); assay: enzyme assay, Protein Tyrosine Kinase ZA70 (ZAP-70) (MDS Pharma Service No 155987); format: biochemical; settings: in words, comparison
T2 construct: purchased MDS Pharma Services (printed once as 'MSD Pharma Services') 155987
T2 sequence (P43403 1-619): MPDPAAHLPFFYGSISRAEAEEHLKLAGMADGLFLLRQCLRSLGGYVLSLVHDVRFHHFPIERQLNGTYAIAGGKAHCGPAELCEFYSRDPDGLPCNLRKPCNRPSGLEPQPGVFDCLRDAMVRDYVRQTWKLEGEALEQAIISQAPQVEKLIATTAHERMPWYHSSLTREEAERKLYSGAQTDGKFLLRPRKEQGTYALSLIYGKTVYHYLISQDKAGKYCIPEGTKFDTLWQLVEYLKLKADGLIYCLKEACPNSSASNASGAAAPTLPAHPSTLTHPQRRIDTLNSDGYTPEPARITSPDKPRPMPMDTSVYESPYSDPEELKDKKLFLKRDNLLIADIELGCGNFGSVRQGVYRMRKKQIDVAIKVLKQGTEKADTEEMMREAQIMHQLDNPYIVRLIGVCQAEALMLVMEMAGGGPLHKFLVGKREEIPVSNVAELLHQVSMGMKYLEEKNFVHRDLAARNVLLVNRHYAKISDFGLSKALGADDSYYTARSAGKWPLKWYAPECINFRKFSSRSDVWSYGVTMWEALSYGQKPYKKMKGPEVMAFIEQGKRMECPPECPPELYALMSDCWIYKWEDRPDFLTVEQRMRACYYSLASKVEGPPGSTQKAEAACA
Protocol: as §1

[5] = test system: moderate to severe inflammation following treatment with cryotherapy; settings: topically applied; cited from earlier work
[6] = test system: experimental contact dermatitis; settings: topically applied; cited from earlier work
undamaged skin area = assay: Acute dermal irritation; format: in vivo
Protocol: The sample was applied at a dose of 0.5 mL, on an undamaged skin area of the right flank of each animal. The patch was secured in position with a strip of surgical adhesive tape.
On the left flank an untreated area served as the control.
The skin reactions were evaluated after 1 hour and then after 24, 48 and 72 hours following removal of the patch according to the following grading scale:
Erythema (0: No erythema, 1: Slight(barelyperceptible)erythema, 2: Definite erythema, 3: Moderate to severe erythema, 4: Severe erythema (purpie) with formation of eschars (deep lesions) preventing erythema from being grading).
Oedema (0: No oedema, 1: Very slight (barely perceptible) oedema, 2: Slight oedema (contour clearly defined), 3: Moderate oedema (thickness), 4: Severe oedema (thickness greater than 1 mm, surface larger than zone of application)

## CC(C(=O)O)c1cccc(C(=O)c2ccccc2)c1 (stereo not shown) [Ketoprofen]
skin
  cutaneous side effects: major contact allergens

## O=C(O)CCc1nc(-c2ccccc2)c(-c2ccccc2)o1 [Monoethanolamine Oxaprozin]
[1]; 250-1000 μg/ear topical
  inhibition of ear swelling (conclusion in words): dose dependent and highly significant inhibition
[2]
  sensitization, macroscopic cutaneous reactions in the challenge phase: No macroscopic cutaneous reactions attributable to allergy

## CCCCOc1ccc(CC(=O)NO)cc1 [Bufexamac]
skin
  cutaneous side effects: cause contact allergy; also recorded: major contact allergens
Phosphodiesterase PDE IV
  inhibitory effect on the PDE-IV enzyme: inhibitory effect
[3]
  inhibitory effect on Protein Tyrosine Kinase SYK: only exhibits inhibitory effect on the PDE-IV enzyme
[4]
  inhibitory effect on Protein Tyrosine Kinase ZAP-70: only exhibits inhibitory effect on the PDE-IV enzyme

## CCCCC(=O)O[C@]1(C(=O)CO)[C@@H](C)C[C@H]2[C@@H]3CCC4=CC(=O)C=C[C@]4(C)[C@@]3(F)[C@@H](O)C[C@@]21C [Betamethasone 17-valerate]
[1]; 20 μg/ear topical (Celeston valerate 0.1%), 24 hours after challenge
  % inhibition of ear swelling: 66%

## O=C(O)Cc1ccccc1Nc1c(Cl)cccc1Cl [Diclofenac]
skin
  cutaneous side effects: irritant-type contact dermatitis may develop

## CN1C(C(=O)Nc2ccccn2)=C(O)c2ccccc2S1(=O)=O [piroxicam]
skin
  cutaneous side effects: phototoxic or photoallergic dermatitis

## CC(=O)Oc1ccccc1C(=O)O [aspirin]
skin
  cutaneous side effects: may induce urticarial reactions

## COc1ccc2c(c1)c(CC(=O)O)c(C)n2C(=O)c1ccc(Cl)cc1 [indomethacin]
skin
  cutaneous side effects: may induce urticarial reactions
[5]
  relieving the erythema and oedema: poor effect
[6]
  response in an animal model of contact dermatitis: has been shown to respond

## O=C(O)CCc1nc(-c2ccccc2)c(-c2ccccc2)o1 [Oxaprozin, 4,5-diphenyl-2-oxazole-propionic acid]
Undamaged skin area; 2.5% by weight in water (monoethanolamine salt), 0.5 mL, 1, 24, 48 and 72 hours
  cutaneous reactions (erythema and oedema): no cutaneous reactions
Undamaged skin area; 5% by weight in water (monoethanolamine salt), 0.5 mL, reading time 1 hour
  erythema on the treated area: slight erythema
Undamaged skin area; 5% by weight, between the 2nd and the 3rd day of the test
  reversibility of the erythema: totally reversible
[1]; Example 7, 500 μg/ear dissolved in 96% ethanol
  inhibition of the formation of ear oedema: statistically significant inhibition

## CCC(=O)O[C@]1(C(=O)CCl)[C@@H](C)C[C@H]2[C@@H]3CCC4=CC(=O)C=C[C@]4(C)[C@@]3(F)[C@@H](O)C[C@@]21C [clobetasol propionate]
[5]
  relieving the erythema and oedema: proved to have effect
